According to PubChem BioAssay (NCI):
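Each compound was tested at five concentrations against cells in 96-well plates for 48 hours. TGI denotes the concentration required for complete inhibition of growth.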

Tests used:
Assay in all cases: NCI-60 cell line screen, 48 h
[1] = test system: UACC-257 melanoma
[2] = test system: HCT-116 colon
[3] = test system: BT-549 breast
[4] = test system: CAKI-1 renal
[5] = test system: DU-145 prostate
[6] = test system: MDA-MB-435
[7] = test system: T-47D breast
[8] = test system: OVCAR-4 ovarian
[9] = test system: HT29 colon
[10] = test system: IGROV1 ovarian
[11] = test system: HL-60(TB) leukemia
[12] = test system: NCI/ADR-RES ovarian
[13] = test system: SF-539 CNS
[14] = test system: SK-MEL-28 melanoma
[15] = test system: SR leukemia
[16] = test system: MDA-MB-231 breast
[17] = test system: U251 CNS
[18] = test system: M14 melanoma
[19] = test system: LOX IMVI melanoma
[20] = test system: HS 578T breast
[21] = test system: PC-3 prostate
[22] = test system: CCRF-CEM leukemia
[23] = test system: MALME-3M melanoma
[24] = test system: SW-620 colon
[25] = test system: NCI-H226 lung
[26] = test system: MCF7 breast
[27] = test system: HCT-15 colon
[28] = test system: A549 NSCLC
[29] = test system: OVCAR-3 ovarian
[30] = test system: COLO 205 colon
[31] = test system: SNB-19 CNS
[32] = test system: A498 renal
[33] = test system: UO-31 renal
[34] = test system: TK-10 renal
[35] = test system: SF-295 CNS
[36] = test system: 786-0 renal
[37] = test system: UACC-62 melanoma
[38] = test system: MOLT-4 leukemia
[39] = test system: MDA-N
[40] = test system: NCI-H460 lung
[41] = test system: SF-268 CNS
[42] = test system: K-562 leukemia
[43] = test system: RPMI-8226 leukemia
[44] = test system: KM12 colon
[45] = test system: NCI-H23 lung
[46] = test system: SK-MEL-5 melanoma
[47] = test system: SK-MEL-2 melanoma
[48] = test system: OVCAR-8 ovarian
[49] = test system: SN12C renal
[50] = test system: HOP-62 NSCLC
[51] = test system: EKVX NSCLC
[52] = test system: SNB-75 CNS
[53] = test system: HCC-2998 colon
[54] = test system: ACHN renal
[55] = test system: NCI-H522 lung
[56] = test system: OVCAR-5 ovarian
[57] = test system: SK-OV-3 ovarian

For `CC(=O)n1cc(OP(=O)(Oc2ccccc2)Oc2ccccc2)c2ccccc21`, the TGI [1] was 77.2 µM, the TGI [2] was 92.2 µM and the TGI [3] was > 100 µM. For the same molecule, the TGI [4] was 54.3 µM, the TGI [5] was > 100 µM and the TGI [6] was 50.3 µM. The TGI [7] was 80.2 µM, the TGI [8] was 73.3 µM and the TGI [9] was > 100 µM. The TGI [10] was > 100 µM, the TGI [11] was 50.3 µM and the TGI [12] was 44.3 µM. It also gave a TGI [13] of 42.5 µM, a TGI [14] of 86 µM and a TGI [15] of 72.4 µM. The TGI [16] was 86.4 µM, the TGI [17] was > 100 µM and the TGI [18] was 52.1 µM. For the same molecule, the TGI [19] was 62.1 µM, the TGI [20] was > 100 µM and the TGI [21] was 31 µM. The TGI [22] was 50.4 µM, the TGI [23] was > 100 µM and the TGI [24] was > 100 µM. The TGI [25] was > 100 µM, the TGI [26] was 31.5 µM and the TGI [27] was > 100 µM. For the same molecule, the TGI [28] was > 100 µM, the TGI [29] was 93.6 µM and the TGI [30] was 27.2 µM. For the same molecule, the TGI [31] was > 100 µM, the TGI [32] was > 100 µM and the TGI [33] was > 100 µM. The TGI [34] was > 100 µM, the TGI [35] was 57.3 µM and the TGI [36] was > 100 µM. The TGI [37] was 42.6 µM, the TGI [38] was 50.9 µM and the TGI [39] was > 100 µM. For the same molecule, the TGI [40] was 50.8 µM, the TGI [41] was 81.3 µM and the TGI [42] was 67.4 µM. For the same molecule, the TGI [43] was 42.2 µM, the TGI [44] was > 100 µM and the TGI [45] was > 100 µM. The TGI [46] was 40.9 µM, the TGI [47] was 77 µM and the TGI [48] was > 100 µM. The TGI [49] was > 100 µM.

With `O=NNc1ccc(Sc2ccc(NN=O)cn2)nc1` the TGI [1] was > 100 µM, the TGI [2] was > 100 µM and the TGI [3] was > 100 µM. For the same molecule, the TGI [4] was > 100 µM, the TGI [5] was > 100 µM and the TGI [7] was > 100 µM. The TGI [8] was > 100 µM, the TGI [9] was > 100 µM and the TGI [10] was > 100 µM. For the same molecule, the TGI [11] was > 100 µM, the TGI [12] was > 100 µM and the TGI [13] was > 100 µM. For the same molecule, the TGI [14] was > 100 µM, the TGI [15] was > 100 µM and the TGI [16] was > 100 µM. For the same molecule, the TGI [17] was > 100 µM, the TGI [18] was > 100 µM and the TGI [50] was > 100 µM. The TGI [51] was > 100 µM, the TGI [20] was > 100 µM and the TGI [21] was > 100 µM. The TGI [22] was > 100 µM, the TGI [24] was > 100 µM and the TGI [25] was > 100 µM. The TGI [26] was > 100 µM, the TGI [27] was > 100 µM and the TGI [28] was > 100 µM. For the same molecule, the TGI [29] was > 100 µM, the TGI [30] was > 100 µM and the TGI [31] was > 100 µM. For the same molecule, the TGI [32] was > 100 µM, the TGI [33] was > 100 µM and the TGI [34] was > 100 µM. For the same molecule, the TGI [35] was > 100 µM, the TGI [36] was > 100 µM and the TGI [37] was > 100 µM. For the same molecule, the TGI [52] was > 100 µM, the TGI [53] was > 100 µM and the TGI [54] was > 100 µM. For the same molecule, the TGI [55] was > 100 µM, the TGI [38] was > 100 µM and the TGI [39] was > 100 µM. For the same molecule, the TGI [40] was > 100 µM, the TGI [41] was > 100 µM and the TGI [56] was > 100 µM. The TGI [42] was > 100 µM, the TGI [57] was > 100 µM and the TGI [44] was > 100 µM. The TGI [45] was > 100 µM, the TGI [46] was > 100 µM and the TGI [48] was > 100 µM. The TGI [49] was > 100 µM.
